Patent publication US9382254B2, “Compounds and pharmaceutical compositions thereof for the treatment of cystic fibrosis” (Galapagos NV, priority 2013, dated 2016)

target: T1, CFTR ΔF508 mutant (Homo sapiens, UniProt P13569, DEL508-508); test: YFP-halide influx assay for the CFTR-ΔF508 mutation, gluconate buffer; type: cell-based; conditions: CFBE41o- cells, forskolin 10.67 μM
T1 construct: expressed in transfected cells; host or cells: CFBE41o- (adenoviral transduction)
Description: The YFP halide influx assay measures the functionality of the cystic fibrosis Transmembrane Conductance regulator (CFTR) channels in the cystic fibrosis bronchial epithelium cell line CFBE41o-. The assay is used to evaluate the capacity of compounds to increase the open probability of existing CFTR channels in the membrane. It makes use of the observation that the yellow fluorescent protein (YFP) variant YFP H148Q, I152L has its fluorescence substantially quenched by halide ions like Cl^− and I^−. (Galietta, Haggie, & Verkman, 2001) (Nagai, et al., 2002)
For this purpose, CFBE41o-cells are seeded in 96 well plates (6000 CFBE cells/well). One day after seeding, the CFBE cells are transduced with adenoviral vectors that direct the expression of the CFTR ΔF508 mutant and of the YFP reporter. Cells are incubated at 27° C., 5% CO2 for 24 hours so as to allow for the proper folding and migration to the membrane of the CFTR channel or treated with a CFTR modulator during 24 hours at 37° C.
The I^−-induced quenching of fluorescence is recorded immediately after injection of I^− for 7 seconds. The capacity of a compound to increase the channel opening is directly correlated with the decrease in fluorescence, and is expressed as (1-(fluorescence after 7 seconds (F)/fluorescence before injection (F0))) and an EC50 can be derived from a (1-F/F0) vs compound concentration plot.

T1 sequence (P13569 with tags, fused parts or gaps DEL508-508): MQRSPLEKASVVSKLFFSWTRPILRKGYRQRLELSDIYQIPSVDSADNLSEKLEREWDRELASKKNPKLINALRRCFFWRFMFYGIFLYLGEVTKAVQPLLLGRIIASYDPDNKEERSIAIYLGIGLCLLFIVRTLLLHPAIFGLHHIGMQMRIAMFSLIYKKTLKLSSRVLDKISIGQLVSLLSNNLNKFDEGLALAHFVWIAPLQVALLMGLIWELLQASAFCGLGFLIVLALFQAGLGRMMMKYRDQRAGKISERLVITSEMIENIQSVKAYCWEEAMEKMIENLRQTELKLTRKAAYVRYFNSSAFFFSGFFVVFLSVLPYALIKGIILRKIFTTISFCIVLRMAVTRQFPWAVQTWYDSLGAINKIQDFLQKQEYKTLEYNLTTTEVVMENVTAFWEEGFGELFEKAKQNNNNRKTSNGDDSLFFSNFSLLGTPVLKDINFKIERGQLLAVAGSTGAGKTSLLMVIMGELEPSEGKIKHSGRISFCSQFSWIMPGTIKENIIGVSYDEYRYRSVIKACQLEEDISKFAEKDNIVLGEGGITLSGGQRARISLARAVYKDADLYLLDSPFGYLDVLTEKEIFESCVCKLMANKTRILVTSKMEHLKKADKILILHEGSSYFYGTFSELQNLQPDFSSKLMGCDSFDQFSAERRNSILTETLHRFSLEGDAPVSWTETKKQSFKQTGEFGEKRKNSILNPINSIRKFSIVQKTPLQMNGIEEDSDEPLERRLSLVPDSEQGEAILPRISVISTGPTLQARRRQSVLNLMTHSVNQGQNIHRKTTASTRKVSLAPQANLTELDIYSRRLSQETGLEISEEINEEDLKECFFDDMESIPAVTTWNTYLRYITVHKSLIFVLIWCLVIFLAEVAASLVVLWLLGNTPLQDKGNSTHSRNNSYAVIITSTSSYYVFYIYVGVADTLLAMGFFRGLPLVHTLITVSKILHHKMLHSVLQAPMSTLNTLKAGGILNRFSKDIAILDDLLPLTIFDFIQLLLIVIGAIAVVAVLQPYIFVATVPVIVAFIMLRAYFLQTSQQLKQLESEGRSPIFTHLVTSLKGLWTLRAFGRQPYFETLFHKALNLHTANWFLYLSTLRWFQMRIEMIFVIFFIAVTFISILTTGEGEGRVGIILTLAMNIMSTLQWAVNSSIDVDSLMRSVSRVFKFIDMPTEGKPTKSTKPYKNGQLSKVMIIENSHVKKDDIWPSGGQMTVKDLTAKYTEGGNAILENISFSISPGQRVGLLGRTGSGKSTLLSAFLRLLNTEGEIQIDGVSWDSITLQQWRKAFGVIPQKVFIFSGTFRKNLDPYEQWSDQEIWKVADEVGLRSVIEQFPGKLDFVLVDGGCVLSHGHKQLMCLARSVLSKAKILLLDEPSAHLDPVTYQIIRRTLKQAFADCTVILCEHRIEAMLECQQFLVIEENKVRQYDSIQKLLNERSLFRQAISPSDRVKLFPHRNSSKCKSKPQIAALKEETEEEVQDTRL

Row | SMILES | EC50 [nM]
1 | CN(C)S(=O)(=O)c1cc(C(N)=O)c(NC(=O)c2ccccc2F)s1 [Compound 74, 5-(N,N-dimethylsulfamoyl)-2-(2-fluorobenzamido) thiophene-3-carboxamide] | 135
2 | CN(C)S(=O)(=O)c1cc(C(N)=O)c(NC(=O)c2cc[nH]n2)s1 [Compound 75, N-(3-carbamoyl-5-(N,N-dimethylsulfamoyl)thiophen-2-yl)-1H-pyrazole-3-carboxamide] | 418
3 | NC(=O)c1cc(S(=O)(=O)N2CCOCC2)sc1NC(=O)c1cscn1 [Compound 76, N-(3-carbamoyl-5-(morpholinosulfonyl)thiophen-2-yl)thiazole-4-carboxamide] | 621
4 | NC(=O)c1cc(S(=O)(=O)N2CCOCC2)sc1NC(=O)c1ncccc1F [Compound 77, N-(3-carbamoyl-5-(morpholinosulfonyl)thiophen-2-yl)-3-fluoropicolinamide] | 3330
5 | NC(=O)c1cc(S(=O)(=O)N2CCOCC2)sc1NC(=O)c1cccnn1 [Compound 79, N-(3-carbamoyl-5-(morpholinosulfonyl)thiophen-2-yl) pyridazine-3-carboxamide] | > 1000
6 | NC(=O)c1cc(S(=O)(=O)N2CCOCC2)sc1NC(=O)c1ccnnc1 [Compound 80, N-(3-carbamoyl-5-(morpholinosulfonyl)thiophen-2-yl)pyridazine-4-carboxamide] | > 1000
7 | NC(=O)c1cc(S(=O)(=O)N2CCOCC2)sc1NC(=O)c1ncccn1 [Compound 81, N-(3-carbamoyl-5-(morpholinosulfonyl)thiophen-2-yl) pyrimidine-2-carboxamide] | > 1000
8 | Cc1ccc(C(=O)Nc2sc(S(=O)(=O)Cc3ccccc3)cc2C(N)=O)s1 [Compound 82, N-(5-(benzylsulfonyl)-3-carbamoylthiophen-2-yl)-5-methylthiophene-2-carboxamide] | 468
9 | Cc1ccc(C(=O)Nc2sc(S(=O)(=O)C3CCOCC3)cc2C(N)=O)s1 [Compound 84, N-(3-carbamoyl-5-(tetrahydro-2H-pyran-4-ylsulfonyl)thiophen-2-yl)-5-methylthiophene-2-carboxamide] | 3190
10 | Cc1c(S(=O)(=O)N2CCOCC2)sc(NC(=O)c2ccccc2F)c1C(N)=O [Compound 85, 2-(2-fluorobenzamido)-4-methyl-5-(morpholinosulfonyl) thiophene-3-carboxamide] | 114
11 | Cc1ccc(C(=O)Nc2sc(S(=O)(=O)c3ccccc3)c(C)c2C(N)=O)s1 [Compound 86, N-(3-carbamoyl-4-methyl-5-(phenylsulfonyl)thiophen-2-yl)-5-methylthiophene-2-carboxamide] | 138
12 | CN(Cc1ccccc1)S(=O)(=O)c1cc(C(N)=O)c(NC(=O)C(C)(C)C)s1 [Compound 88, 5-(N-benzyl-N-methylsulfamoyl)-2-pivalamidothiophene-3-carboxamide] | 162
13 | Cc1ccc(C(=O)Nc2sc(S(=O)(=O)c3ccccn3)cc2C(N)=O)s1 [Compound 89, N-(3-carbamoyl-5-(pyridin-2-ylsulfonyl)thiophen-2-yl)-5-methylthiophene-2-carboxamide] | 378
14 | Cc1c(S(=O)(=O)N2CCOCC2)sc(NC(=O)c2cc[nH]n2)c1C(N)=O [Compound 90, N-(3-carbamoyl-4-methyl-5-(morpholinosulfonyl)thiophen-2-yl)-1H-pyrazole-3-carboxamide] | 261
15 | NC(=O)c1cc(S(=O)(=O)N2CCOCC2)sc1NC(=O)c1ccccn1 [Compound 91, N-(3-carbamoyl-5-(morpholinosulfonyl)thiophen-2-yl) picolinamide] | 1520
16 | Cc1c(S(=O)(=O)N2CCOCC2)sc(NC(=O)C(C)(C)C)c1C(N)=O [Compound 92, 4-methyl-5-(morpholinosulfonyl)-2-pivalamidothiophene-3-carboxamide] | 953
17 | NC(=O)c1cc(S(=O)(=O)N2CCOCC2)sc1NC(=O)c1nccs1 [Compound 93, N-(3-carbamoyl-5-(morpholinosulfonyl)thiophen-2-yl)thiazole-2-carboxamide] | 3330
18 | NC(=O)c1cc(S(=O)(=O)N2CCOCC2)sc1NC(=O)c1cocn1 [Compound 94, N-(3-carbamoyl-5-(morpholinosulfonyl)thiophen-2-yl) oxazole-4-carboxamide] | 3330
19 | CC(C)(C)c1cc(C(=O)Nc2sc(S(=O)(=O)c3ccccc3)cc2C(N)=O)n[nH]1 [Compound 96, 5-tert-butyl-N-(3-carbamoyl-5-(phenylsulfonyl)thiophen-2-yl)-1H-pyrazole-3-carboxamide] | 253

Row | SMILES | EC50 [nM]
20 | NC(=O)c1cc(S(=O)(=O)N2CCOCC2)sc1NC(=O)c1ccc[nH]1 [Compound 97, N-(3-carbamoyl-5-(morpholinosulfonyl)thiophen-2-yl)-1H-pyrrole-2-carboxamide] | > 1000
21 | NC(=O)c1cc(S(=O)(=O)N2CCOCC2)sc1NC(=O)c1ncco1 [Compound 98, N-(3-carbamoyl-5-(morpholinosulfonyl)thiophen-2-yl)oxazole-2-carboxamide] | > 1000
22 | NC(=O)c1cc(S(=O)(=O)N2CCOCC2)sc1NC(=O)c1ccco1 [Compound 99, N-(3-carbamoyl-5-(morpholinosulfonyl)thiophen-2-yl)furan-2-carboxamide] | 1940
23 | NC(=O)c1cc(S(=O)(=O)c2ccccc2)sc1NC(=O)c1ccccc1F [Compound 100, 2-(2-fluorobenzamido)-5-(phenylsulfonyl) thiophene-3-carboxamide] | 121
24 | NC(=O)c1cc(S(=O)(=O)N2CCOCC2)sc1NC(=O)c1cc(C(F)(F)F)[nH]n1 [Compound 102, N-(3-carbamoyl-5-(morpholinosulfonyl)thiophen-2-yl)-5-(trifluoromethyl)-1H-pyrazole-3-carboxamide] | 215
25 | Cc1c(S(=O)(=O)c2ccccc2)sc(NC(=O)c2ccccc2C(F)(F)F)c1C(N)=O [Compound 104, 4-methyl-5-(phenylsulfonyl)-2-(2-(trifluoromethyl)benzamido)thiophene-3-carboxamide] | 370
26 | Cc1c(S(=O)(=O)N2CCOCC2)sc(NC(=O)c2ccccc2C(F)(F)F)c1C(N)=O [Compound 105, 4-methyl-5-(morpholinosulfonyl)-2-(2-(trifluoromethyl)benzamido) thiophene-3-carboxamide] | 396
27 | CN(Cc1ccc(F)cc1)S(=O)(=O)c1cc(C(N)=O)c(NC(=O)c2ccccc2F)s1 [Compound 106, 2-(2-fluorobenzamido)-5-(N-(4-fluorobenzyl)-N-methylsulfamoyl) thiophene-3-carboxamide] | 213
28 | CN(C(C)(C)C)S(=O)(=O)c1cc(C(N)=O)c(NC(=O)c2ccccc2F)s1 [Compound 107, 5-(N-tert-butyl-N-methylsulfamoyl)-2-(2-fluorobenzamido) thiophene-3-carboxamide] | 130
29 | CN(CC(F)F)S(=O)(=O)c1cc(C(N)=O)c(NC(=O)c2ccccc2F)s1 [Compound 108, 5-(N-(2,2-difluoroethyl)-N-methylsulfamoyl)-2-(2-fluorobenzamido) thiophene-3-carboxamide] | 198
30 | CCc1cc(C(=O)Nc2sc(S(=O)(=O)c3ccc(F)cc3)cc2C(N)=O)n[nH]1 [Compound 110, N-(3-carbamoyl-5-(4-fluorophenylsulfonyl)thiophen-2-yl)-5-ethyl-1H-pyrazole-3-carboxamide] | 144
31 | CC(C)(C)C(=O)Nc1sc(S(=O)(=O)c2ccc(F)cc2)cc1C(N)=O [Compound 112, 5-(4-fluorophenylsulfonyl)-2-pivalamidothiophene-3-carboxamide] | 352
32 | NC(=O)c1cc(S(=O)(=O)c2cccc(F)c2)sc1NC(=O)c1ccccc1F [Compound 115, 2-(2-fluorobenzamido)-5-(3-fluorophenylsulfonyl) thiophene-3-carboxamide] | 235
33 | NC(=O)c1cc(S(=O)(=O)c2ccccc2F)sc1NC(=O)c1ccccc1F [Compound 117, 2-(2-fluorobenzamido)-5-(2-fluorophenylsulfonyl) thiophene-3-carboxamide] | 138
34 | CC(C)(C)C(=O)Nc1sc(S(=O)(=O)c2ccc(F)c(F)c2)cc1C(N)=O [Compound 120, 5-(3,4-difluorophenylsulfonyl)-2-pivalamidothiophene-3-carboxamide] | 488
35 | Cc1ccc(CN(C)S(=O)(=O)c2cc(C(N)=O)c(NC(=O)c3ccccc3F)s2)cc1 [Compound 124, 2-(2-fluorobenzamido)-5-(N-methyl-N-(4-methylbenzyl)sulfamoyl) thiophene-3-carboxamide] | 503
36 | CN(CC#N)S(=O)(=O)c1cc(C(N)=O)c(NC(=O)c2ccccc2F)s1 [Compound 125, 5-(N-(cyanomethyl)-N-methylsulfamoyl)-2-(2-fluorobenzamido) thiophene-3-carboxamide] | 580
37 | NC(=O)c1cc(S(=O)(=O)N2CC(F)(F)C2)sc1NC(=O)c1ccccc1F [Compound 126, 5-(3,3-diflluoroazetidin-1-ylsulfonyl)-2-(2-fluorobenzamido) thiophene-3-carboxamide] | 191
38 | CS(=O)(=O)c1cc(C(N)=O)c(NC(=O)c2ccccc2F)s1 [Compound 127, 2-(2-fluorobenzamido)-5-(methylsulfonyl) thiophene-3-carboxamide] | 659
